Results: ChEMBL document CHEMBL1135077, “Human glucagon receptor antagonists based on alkylidene hydrazides” (Bioorg Med Chem Lett, 2002)

How the values were obtained:
Glucagon receptor [1] = target: Glucagon receptor (Homo sapiens, UniProt P47871); experiment: In vitro inhibitory activity against human glucagon receptor using […]-labeled glucagon
[2] = Half life period in vivo; format: ADME, organism-based
Glucagon receptor [3] = target: Glucagon receptor (Rattus norvegicus, UniProt P30082); experiment: In vitro inhibitory activity against rat glucagon receptor using […]-labeled glucagon
Rattus norvegicus = species: Rattus norvegicus; experiment: In vitro metabolism in rat liver microsomes was evaluated to determine diminishing of glucuronidation rate; format: ADME

Sequence of Glucagon receptor (Homo sapiens, UniProt P47871) (P47871 whole entry): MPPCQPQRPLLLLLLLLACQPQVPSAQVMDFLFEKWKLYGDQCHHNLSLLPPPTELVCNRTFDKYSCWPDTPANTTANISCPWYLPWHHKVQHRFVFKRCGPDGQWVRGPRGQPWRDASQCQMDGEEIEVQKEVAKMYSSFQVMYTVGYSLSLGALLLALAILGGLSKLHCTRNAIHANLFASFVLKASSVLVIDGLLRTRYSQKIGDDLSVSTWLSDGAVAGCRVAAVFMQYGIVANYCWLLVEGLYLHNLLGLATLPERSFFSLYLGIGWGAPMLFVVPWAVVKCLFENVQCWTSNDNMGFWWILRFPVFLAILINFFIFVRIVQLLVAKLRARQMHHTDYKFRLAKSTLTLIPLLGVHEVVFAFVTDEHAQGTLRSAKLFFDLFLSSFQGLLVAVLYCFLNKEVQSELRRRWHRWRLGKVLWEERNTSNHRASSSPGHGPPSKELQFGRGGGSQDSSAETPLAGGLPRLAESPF
Sequence of Glucagon receptor (Rattus norvegicus, UniProt P30082) (P30082 whole entry): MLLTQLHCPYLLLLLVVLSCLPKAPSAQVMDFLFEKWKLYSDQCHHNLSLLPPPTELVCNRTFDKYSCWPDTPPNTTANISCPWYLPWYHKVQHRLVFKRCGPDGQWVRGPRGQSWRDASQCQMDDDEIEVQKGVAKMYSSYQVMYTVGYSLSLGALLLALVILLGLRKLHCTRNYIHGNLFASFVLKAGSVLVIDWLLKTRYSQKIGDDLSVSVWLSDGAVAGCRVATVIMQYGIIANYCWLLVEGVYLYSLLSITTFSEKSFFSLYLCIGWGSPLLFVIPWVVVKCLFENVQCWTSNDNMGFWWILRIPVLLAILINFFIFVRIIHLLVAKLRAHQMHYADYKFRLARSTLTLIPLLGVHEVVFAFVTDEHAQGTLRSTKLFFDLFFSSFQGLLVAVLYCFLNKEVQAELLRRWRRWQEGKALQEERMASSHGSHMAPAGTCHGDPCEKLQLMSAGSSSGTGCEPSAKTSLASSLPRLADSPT

Row | Structure (SMILES) | IC50 (Glucagon receptor [1]) [nM] | other results
1 | COc1cc(/C(C)=N/NC(=O)c2ccc(O)c(Cl)c2)cc(OC)c1OCc1ccc(C(C)C)cc1 | > 100000 | 
2 | CC(C)c1ccc(Cn2cc(/C=N/NC(=O)c3ccc(O)c(Cl)c3)c3ccccc32)cc1 | 390 | 
3 | O=C(N/N=C/c1ccc(OCc2ccc(OC(F)(F)F)cc2)c2ccccc12)c1ccc(O)c(Cl)c1 | 58 | 
4 | CC(C)c1ccc(Cn2ccc3c(/C=N/NC(=O)c4ccc(O)c(Cl)c4)cccc32)cc1 | 84 | 
5 | COc1ccc(/C=N/NC(=O)c2ccc(O)c(Cl)c2)c2ccccc12 | 870 | 
6 | COc1cc(CNNC(=O)c2ccc(O)c(Cl)c2)cc(OC)c1OCc1ccc(C(C)C)cc1 | 880 | 
7 | Cc1c(/C=N/NC(=O)c2ccc(O)c(Cl)c2)ccc(OCc2ccc(C(C)C)cc2)c1C | 740 | 
8 | O=C(N/N=C/c1ccc(OCC2CCCCO2)c2ccccc12)c1ccc(O)c(Cl)c1 (configuration not stated) | 140 | 
9 | CC(C)(C)c1nc(COc2ccc(/C=N/NC(=O)c3ccc(O)c(Cl)c3)c3ccccc23)no1 | 160 | 
10 | COc1cc(/C=N/NC(=O)c2ccc(O)c(Cl)c2)cc(OC)c1OCc1ccc(OC(F)(F)F)cc1 | 180 | 
11 | COc1cc(/C=N/NC(=O)c2ccc(O)c(Cl)c2)cc(OC)c1OCc1ccc(F)c(F)c1 | 150 | 
12 | CC(C)c1ccc(COc2ccc(/C=N/NC(=O)c3ccc(O)c(Cl)c3)cc2)cc1 | 1500 | 
13 | CCN(CC)C(=O)COc1ccc(/C=N/NC(=O)c2ccc(O)c(Cl)c2)c2ccccc12 | 130 | 
14 | NC(=O)COc1ccc(/C=N/NC(=O)c2ccc(O)c(Cl)c2)c2ccccc12 | 1200 | 
15 | CC(C)c1ccc(COc2ccc(/C=N/NC(=O)c3ccc(O)c(Cl)c3)c3ccccc23)cc1 | 53 | 
16 | COc1cc(CCNC(=N)c2ccc(O)c(Cl)c2)cc(OC)c1OCc1ccc(C(C)C)cc1 | 5200 | 
17 | COC(=O)C(Oc1c(OC)cc(/C=N/NC(=O)c2ccc(O)c(Cl)c2)cc1OC)c1ccccc1 (configuration not stated) | 690 | 

Now from value to compound, other results behind:

Row | IC50 (Glucagon receptor [1]) [nM] | Structure (SMILES) | other results
18 | 31 | COc1cc(/C=N/NC(=O)c2ccc(O)c(Cl)c2Cl)cc(OC)c1OCc1ccc(C(C)C)cc1 | 
19 | 110 | COc1cc(/C=N/NC(=O)c2ccc(O)c(F)c2)cc(OC)c1OCc1ccc(C(C)C)cc1 | 
20 | 48 | COc1cc(/C=N/NC(=O)c2ccc(O)c(F)c2F)cc(OC)c1OCc1ccc(C(C)C)cc1 | 
21 | 50 | COc1cc(/C=N/NC(=O)c2ccc(O)c([N+](=O)[O-])c2)cc(OC)c1OCc1ccc(C(C)C)cc1 | 
22 | 2700 | COc1cc(/C=N/NC(=O)c2ccc(O)c(O)c2)cc(OC)c1OCc1ccc(C(C)C)cc1 | 
23 | 330 | Cc1cc(/C=N/NC(=O)c2ccc(O)c(Cl)c2)cc(C)c1OCc1ccc(C(C)C)cc1 | 
24 | 20 | COc1cc(/C=N/NC(=O)c2ccc(O)c(C#N)c2)cc(OC)c1OCc1ccc(C(C)C)cc1 | half-life [2]: 60 min; IC50 (Glucagon receptor [3]): 1 nM; Rate (Rattus norvegicus): 27 pM min-1 (mg of protein)-1
25 | 6400 | COc1cc(/C=C/C(=O)Nc2ccc(O)c(Cl)c2)cc(OC)c1OCc1ccc(C(C)C)cc1 | 
26 | 30000 | COc1cc(/C=N/NC(=O)c2ccc(O)c(Cl)c2)cc(C(=O)O)c1OCc1ccc(C(C)C)cc1 | 
27 | 1300 | COc1cc(/C=N/NC(=O)c2ccc(O)c(Cl)c2)ccc1OCc1ccc(C(C)C)cc1 | 
28 | 23 | COc1cc(/C=N/NC(=O)c2ccc(O)c(Cl)c2)cc(OC)c1OCc1ccc(C(C)C)cc1 | half-life [2]: 18 min; Rate (Rattus norvegicus): 169 pM min-1 (mg of protein)-1
29 | 940 | COc1cc(/C=N/NC(=O)c2ccc(O)c(N)c2)cc(OC)c1OCc1ccc(C(C)C)cc1 | 
30 | 690 | COc1cc(/C=N/NC(=O)c2ccc(O)cc2)cc(OC)c1OCc1ccc(C(C)C)cc1 | 
31 | 1900 | COc1cc(CCNC(=O)c2ccc(O)c(Cl)c2)cc(OC)c1OCc1ccc(C(C)C)cc1 | 
32 | 78300 | COc1cc(/C=N/NS(=O)(=O)c2ccc(O)c(Cl)c2)cc(OC)c1OCc1ccc(C(C)C)cc1 | 
